# Source: patent US9556153B1, “JAK1 inhibitors” (Eli Lilly and Company, priority 2015, dated 2017)
# Target: JAK2 (Homo sapiens, UniProt O60674)
# Assay: AlphaScreen SureFire p-STAT5 (p-Tyr694/699)-EPO-JAK2 cell-based assay (UT-7 cells)
# Set-up: purchased Invitrogen
# Conditions: EPO 45 ng/mL, n=5, read-out: IC50, EPO-stimulated pSTAT5 JAK2 cell-based assay
# Method: AlphaScreen SureFire Protocol p-STAT5 (p-Tyr694/699)-EPO-JAK2 Cell-Based Assay
# The fold selectivity of test compounds for JAK1 over JAK2 is determined by a cellular assay, in which EPO is used to activate JAK2-STAT5 pathway, and pSTAT5 is used as the readout.
# Starve UT-7 cells overnight in DMEM medium with 0.5% […] (FBS) and 1× Pen/Strep at 37° C. (without GM-CSF). Plate 50000 cells per well in BD 96 well black plates with clear bottoms (in medium without FBS and GM-CSF). Maintain the plates at RT for 30-60 minutes before incubating overnight at 37° C. and 5% CO2. Count cells using Vi-Cell counter, use a cell suspension at 500000 cells/mL and plated 100 μL/well in […] Biocoat plates Catalog #354640. […]
# Follow the following steps sequentially: make acceptor mix (activation buffer/reaction buffer/acceptor beads); transfer 4 μL lysate from 96 well plates to 384 well-Proxiplate; add 5 μL acceptor mix to 384 proxiplate plate(s) with multidrop combi; seal plates with aluminum seal; shake 1-2 minutes on plate shaker; incubate plate at RT for 2 hr with gentle shaking; make donor mix (donor beads in dilution buffer); add 2 μl donor mix to assay plates with multidrop combi; seal plates with aluminum seal; shake 1-2 minutes on plate shaker; incubate at RT for 2 hr with gentle shaking; read plate with Envision; protocol AlphaScreen Surefire 384.
# Sequence of JAK2 (O60674 whole entry): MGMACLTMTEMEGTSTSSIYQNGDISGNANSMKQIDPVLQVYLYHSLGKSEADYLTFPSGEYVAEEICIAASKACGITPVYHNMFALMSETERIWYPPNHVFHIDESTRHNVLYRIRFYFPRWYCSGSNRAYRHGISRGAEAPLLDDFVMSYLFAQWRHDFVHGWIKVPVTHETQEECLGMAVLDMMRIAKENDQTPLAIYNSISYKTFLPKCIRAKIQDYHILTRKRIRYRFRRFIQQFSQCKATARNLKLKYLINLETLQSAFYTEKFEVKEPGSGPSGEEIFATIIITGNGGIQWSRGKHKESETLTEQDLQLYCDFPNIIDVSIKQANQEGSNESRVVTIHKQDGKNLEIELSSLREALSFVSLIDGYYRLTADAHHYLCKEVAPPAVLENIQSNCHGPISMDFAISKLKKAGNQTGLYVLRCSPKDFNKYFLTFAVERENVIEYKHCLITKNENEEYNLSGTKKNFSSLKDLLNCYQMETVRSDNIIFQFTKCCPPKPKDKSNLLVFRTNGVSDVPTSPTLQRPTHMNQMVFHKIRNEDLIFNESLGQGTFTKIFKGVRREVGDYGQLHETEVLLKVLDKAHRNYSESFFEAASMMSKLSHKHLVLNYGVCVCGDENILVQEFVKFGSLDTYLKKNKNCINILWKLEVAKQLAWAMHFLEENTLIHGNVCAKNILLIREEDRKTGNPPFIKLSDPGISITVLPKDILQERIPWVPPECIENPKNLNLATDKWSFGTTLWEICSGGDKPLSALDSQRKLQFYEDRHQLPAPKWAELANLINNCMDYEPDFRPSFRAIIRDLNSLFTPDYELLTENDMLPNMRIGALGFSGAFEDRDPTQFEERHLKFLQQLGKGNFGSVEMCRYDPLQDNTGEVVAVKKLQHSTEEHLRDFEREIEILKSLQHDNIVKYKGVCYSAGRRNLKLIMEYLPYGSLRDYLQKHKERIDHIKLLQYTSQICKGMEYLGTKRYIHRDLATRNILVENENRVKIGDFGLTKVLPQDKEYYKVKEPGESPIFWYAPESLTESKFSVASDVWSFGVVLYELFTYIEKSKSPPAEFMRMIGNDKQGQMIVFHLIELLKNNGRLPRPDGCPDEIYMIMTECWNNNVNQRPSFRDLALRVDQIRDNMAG
structure (smiles),measurement,value
"Cc1cc(Nc2cc(O[C@H]3CC[C@@H](NC[C@@H](O)C(F)(F)F)CC3)cc3c2ncn3C)nn1C [Example 1, (2R)-3-{[cis-4-({4-[(1,5-Dimethyl-1H-pyrazol-3-yl)amino]-1-methyl-1H-benzimidazol-6-yl}oxy)cyclohexyl]amino}-1,1,1-trifluoropropan-2-ol]",IC50,11.8 µM
